Experimental data from US20230416237A1, “AMIDE COMPOUND, PHARMACEUTICAL COMPOSITION AND USE THEREOF” (SHENZHEN BO LI JIAN MEDICINE CO., LTD., priority 2020, published 2023).
pIC50: −log10 of the molar value.

Assays:
[1] = target: JAK1 (Homo sapiens (Human), UniProt P23458); assay: JAK1 inhibitory activity, mobility shift assay, 1 mM ATP; type: biochemical; settings: for IC50: 1 mM ATP; for JAK2/JAK1 Multiple selectivity: ratio of JAK2 IC50 to JAK1 IC50, 1 mM ATP
Procedure: (§1) The JAK1 inhibitory activity and the JAK2 inhibitory activity of the amide compounds provided in the above examples were tested by the method below.
(§2) Specific steps are described below. • 1. A 1× Kinase buffer was formulated. • 2. Concentration gradients of the compound were formulated: a test compound with an initial concentration of 10000 nM (JAK1) or 30000 nM (JAK2) was diluted in a 384-well plate to a 100% DMSO solution with a 100-fold final concentration, wherein the compound was diluted by a fold of 3 to 10 concentrations. 250 nL of the compound with the 100-fold final concentration was transferred with a dispenser Echo 550 to the target plate. • 3. A kinase solution with a 2.5-fold final concentration was prepared with the 1× Kinase buffer. • 4. […] The plate was centrifuged at 1000 rpm for 30 s, shaken and uniformly mixed, and incubated for 10 min at room temperature. • 6. A mixed solution of ATP (the final concentration of ATP=1 mM) and Kinase substrate with a 5/3-fold final concentration was formulated with the 1× Kinase buffer. • 7. 15 μL of the mixed solution of ATP and the substrate with the 5/3-fold final concentration was added to initiate the reaction. • 8. The 384-well plate was centrifuged at 1000 rpm for 30 s, shaken and uniformly mixed, and incubated for respective times at room temperature. • 9. The kinase reaction was stopped by adding 30 μL of a detection termination solution, and the plate was centrifuged at 1000 rpm for 30 s and shaken and uniformly mixed. • 10. The conversion rate was read with Caliper EZ Reader and the half maximal inhibitory concentration (IC50) was calculated.

[2] = target: T1, JAK2 (Homo sapiens (Human), UniProt O60674); assay: JAK2 inhibitory activity, mobility shift assay, 1 mM ATP; type: biochemical
Procedure: as §1, §2
Target sequence in this assay (O60674 826-1132): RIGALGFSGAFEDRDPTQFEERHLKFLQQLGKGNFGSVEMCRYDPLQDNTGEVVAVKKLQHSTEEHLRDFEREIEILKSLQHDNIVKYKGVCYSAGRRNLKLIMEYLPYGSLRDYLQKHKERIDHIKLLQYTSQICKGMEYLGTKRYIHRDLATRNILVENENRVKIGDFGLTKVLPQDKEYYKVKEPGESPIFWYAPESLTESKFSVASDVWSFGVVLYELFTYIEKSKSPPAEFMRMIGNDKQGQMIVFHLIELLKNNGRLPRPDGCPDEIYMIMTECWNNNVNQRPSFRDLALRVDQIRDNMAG

[3] = system: IFNα-induced pSTAT3 (JAK1/TYK2 signaling pathway); assay: Mouse whole blood assay, inhibition of IFNα-induced pSTAT3; type: cell-based; settings: C57BL/6J mouse blood, IFNα 20000 IU/mL
Procedure: Cytokine IFNα can induce STAT3 phosphorylation (pSTAT3) through the JAK1/TYK2 signaling pathway. […] IFNα used was Recombinant mouse IFNα (Miltenyi #130-093-131), the pSTAT3 antibody used was Alexa Fluor 488 anti-STAT3 Phospho (Tyr705) Antibody (Biolegend #651106), and the CD3 antibody used was Brilliant Violet 421 anti-mouse CD3 Antibody (Biolegend #100228). The cytokine dilution buffer was PBS+0.1% BSA, which was filtered and stored at […]. The FACS buffer was PBS+0.2% BSA+1 mM EDTA. Specific steps are described below. • 1. C57BL/6J mouse blood was added to a 96-well plate, with 90 μL per well. • 2. Each well was added with 5 μL of the compound ([…]), uniformly mixed and incubated at 37° C. for 60 min in an incubator. • 3. Each well was added with 5 μL of 20×IFNα (with a working concentration of 20000 IU/mL) as the stimulation factor, uniformly mixed and incubated at 37° C. for 30 min. • 4. Blood was transferred to a 96-deep-well plate, and each well was added with 1 mL of Lyse fix buffer (1×), uniformly mixed and incubated at 37° C. for 10 min. • 5. The plate was centrifuged at 600 g for 5 min and the supernatant was discarded. 1 mL of PBS was added to each well and centrifuged at 600 g for 5 min and the supernatant was discarded, which were repeated twice. Each well was added with 100 μL of the anti-mCD3 antibody (diluted by a fold of 80 with the cytokine dilution buffer), uniformly mixed and incubated at 4° C. for 30 min. • 6. 1 mL of PBS was added to each well and centrifuged at 600 g for 5 min and the supernatant was discarded, which were repeated twice. Each well was added with 1000 μL of Perm III, uniformly mixed and incubated at 4° C. for 30 min. • 7. The plate was centrifuged at 600 g for 5 min and the supernatant was discarded. 1 mL of PBS was added to each well and centrifuged at 600 g for 5 min and the supernatant was discarded, which were repeated twice. • 8. Each well was added with 100 μL of the anti-pSTAT3 antibody (diluted by a fold of 50 with the FACS buffer), uniformly mixed and incubated at 25° C. for 40 min. • 9. 1 mL of the FACS buffer was added to each well and centrifuged at 600 g for 5 min and the supernatant was discarded. 200 μL of the FACS buffer was added to each well and resuspended. All samples were transferred to a 96-well tip-bottom plate and uploaded. • 10. Data were collected and analyzed.

[4] = target: T1, JAK2; settings: selective JAK1 inhibitors, literature; cited from earlier work
Target sequence in this assay (O60674 whole entry, species assumed): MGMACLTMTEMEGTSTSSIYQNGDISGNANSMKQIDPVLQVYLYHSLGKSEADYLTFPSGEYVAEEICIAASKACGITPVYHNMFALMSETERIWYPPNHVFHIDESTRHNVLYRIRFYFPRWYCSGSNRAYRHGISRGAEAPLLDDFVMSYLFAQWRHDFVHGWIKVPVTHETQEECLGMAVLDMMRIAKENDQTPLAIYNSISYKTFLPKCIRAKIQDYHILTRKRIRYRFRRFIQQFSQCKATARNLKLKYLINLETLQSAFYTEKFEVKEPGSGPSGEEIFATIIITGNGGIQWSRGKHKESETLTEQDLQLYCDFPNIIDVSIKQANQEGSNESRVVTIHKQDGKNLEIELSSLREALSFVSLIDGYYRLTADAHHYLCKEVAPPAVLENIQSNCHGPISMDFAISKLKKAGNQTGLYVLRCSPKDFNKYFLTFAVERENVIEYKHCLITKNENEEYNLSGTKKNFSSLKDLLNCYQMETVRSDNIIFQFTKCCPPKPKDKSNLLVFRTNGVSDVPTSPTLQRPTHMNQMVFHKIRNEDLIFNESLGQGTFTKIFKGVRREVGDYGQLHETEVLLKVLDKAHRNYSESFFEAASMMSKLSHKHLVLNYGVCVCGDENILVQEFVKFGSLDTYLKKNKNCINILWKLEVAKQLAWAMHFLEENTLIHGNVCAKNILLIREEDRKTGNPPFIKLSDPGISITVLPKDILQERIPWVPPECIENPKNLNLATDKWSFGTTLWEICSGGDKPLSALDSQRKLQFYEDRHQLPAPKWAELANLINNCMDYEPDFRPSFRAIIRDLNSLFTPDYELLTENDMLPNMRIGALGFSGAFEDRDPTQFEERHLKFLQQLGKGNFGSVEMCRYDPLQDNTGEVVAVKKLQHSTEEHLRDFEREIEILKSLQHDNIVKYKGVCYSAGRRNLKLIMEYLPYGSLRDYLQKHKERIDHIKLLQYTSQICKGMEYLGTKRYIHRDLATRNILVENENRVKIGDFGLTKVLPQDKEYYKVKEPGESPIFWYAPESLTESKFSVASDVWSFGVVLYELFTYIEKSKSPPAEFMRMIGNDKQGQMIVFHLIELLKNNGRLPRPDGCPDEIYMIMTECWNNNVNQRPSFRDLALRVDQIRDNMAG

Chain of JAK1 (P23458 850-1154): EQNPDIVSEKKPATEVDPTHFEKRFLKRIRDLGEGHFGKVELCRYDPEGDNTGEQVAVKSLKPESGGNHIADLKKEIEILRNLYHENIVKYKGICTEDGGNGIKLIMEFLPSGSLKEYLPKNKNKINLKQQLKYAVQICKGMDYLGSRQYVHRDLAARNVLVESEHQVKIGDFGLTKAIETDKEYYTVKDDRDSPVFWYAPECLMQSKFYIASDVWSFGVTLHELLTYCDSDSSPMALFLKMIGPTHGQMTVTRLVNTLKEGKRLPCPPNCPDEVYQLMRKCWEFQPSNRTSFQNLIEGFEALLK

Compound	IC50 ([1]; Table 7) [nM]	IC50 ([1]; Table 8) [nM]	JAK2/JAK1 Multiple selectivity [1]	IC50 ([2]; Table 7) [nM]	IC50 ([2]; Table 8) [nM]	pIC50 [3]	selectivity for JAK2 in kinase assays [4]
CCCS(=O)(=O)N[C@H]1C[C@@H](N(C)c2ncnc3[nH]ccc23)C1 [abrocitinib, reference compound]	–	–	–	–	–	6.69	–
O=C(Nc1nc2cccc(-c3ccc(CN4CCS(=O)(=O)CC4)cc3)n2n1)C1CC1 [filgotinib]	–	–	–	–	–	–	less than three
CC[C@@H]1CN(C(=O)NCC(F)(F)F)C[C@@H]1c1cnc2cnc3[nH]ccc3n12 [upadacitinib]	–	–	–	–	–	–	less than three

Now from value to compound, other results behind:

IC50 ([1]; Table 7) [nM]	IC50 ([1]; Table 8) [nM]	JAK2/JAK1 Multiple selectivity [1]	IC50 ([2]; Table 7) [nM]	IC50 ([2]; Table 8) [nM]	pIC50 [3]	Compound	selectivity for JAK2 in kinase assays [4]
56	56	72	4020	4020	6.76	COc1nn(C)cc1Nc1nccc(-c2c[nH]c3c(NC(=O)[C@@H](C)N4CCN(C)CC4)cccc23)n1 [AZD4205, reference compound]	–
33	33	156	5160	5160	6.90	COc1nn(C)cc1Nc1ncc(C)c(-c2c[nH]c3c(NC(=O)[C@H]4C[C@H](F)CN4[C@@H]4CCN(C)C4)cccc23)n1 [Example 30, (2R,3′R,4S)-4-fluoro-N-(3-(2-((3-methoxy-1-methyl-1H-pyrazol-4-yl)amino)-5-methylpyrimidin-4-yl)-1H-indol-7-yl)-1′-methyl-[1,3′-bipyrrolidine]-2-carboxamide]	–
26	26	149	3880	3880	6.92	COc1nn(C)cc1Nc1ncc(C)c(-c2c[nH]c3c(NC(=O)[C@H]4CC(F)(F)CN4[C@@H]4CCN(C)C4)cccc23)n1 [Example 32, (2R,3′R)-4,4-difluoro-N-(3-(2-((3-methoxy-1-methyl-1H-pyrazol-4-yl)amino)-5-methylpyrimidin-4-yl)-1H-indol-7-yl)-1′-methyl-[1,3′-bipyrrolidine]-2-carboxamide]	–
